Active and inactive are the calls of the source. No cut-off for these calls is given here.
Biological target: T1, 2-5A-dependent ribonuclease (Homo sapiens) (UniProt Q05823)
T1 sequence (whole entry): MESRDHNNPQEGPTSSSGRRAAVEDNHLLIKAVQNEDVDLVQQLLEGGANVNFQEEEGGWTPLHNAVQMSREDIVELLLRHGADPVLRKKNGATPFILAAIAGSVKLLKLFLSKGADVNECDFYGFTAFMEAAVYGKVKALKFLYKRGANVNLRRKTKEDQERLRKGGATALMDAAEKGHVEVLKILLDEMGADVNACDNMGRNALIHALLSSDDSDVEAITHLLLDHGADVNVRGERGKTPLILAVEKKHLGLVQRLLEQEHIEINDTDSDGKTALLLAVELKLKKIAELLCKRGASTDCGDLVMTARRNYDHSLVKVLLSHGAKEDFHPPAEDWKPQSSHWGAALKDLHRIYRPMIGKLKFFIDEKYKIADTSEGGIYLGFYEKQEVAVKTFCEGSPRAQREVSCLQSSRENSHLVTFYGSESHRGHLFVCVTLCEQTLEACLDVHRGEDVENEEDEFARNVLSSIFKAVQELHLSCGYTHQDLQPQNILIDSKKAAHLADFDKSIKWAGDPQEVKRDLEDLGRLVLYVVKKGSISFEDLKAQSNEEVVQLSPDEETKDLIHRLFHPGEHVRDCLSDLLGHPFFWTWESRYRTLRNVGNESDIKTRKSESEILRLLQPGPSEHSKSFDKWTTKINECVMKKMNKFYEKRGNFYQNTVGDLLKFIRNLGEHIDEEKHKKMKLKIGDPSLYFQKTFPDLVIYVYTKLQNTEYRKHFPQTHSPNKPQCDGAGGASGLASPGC
Test: Antagonist activity at human RNase L expressed in Escherichia coli BL21 (DE3) cells assessed as RNA cleavage using Cy5-C11-rUU-C7-BHQ2 as substrate by FRET assay in presence of natural activator pAAAA
Type: functional

inhibition | Compound
inactive | Nc1ncnc2c1ncn2[C@@H]1O[C@H](COCP(=O)(O)O[C@@H]2[C@H](O)[C@@H](COP(=O)(O)O[C@@H]3[C@H](O)[C@@H](COCP(=O)(O)O[C@@H]4[C@H](O)[C@@H](COCP(=O)(O)O)O[C@H]4n4cnc5c(N)ncnc54)O[C@H]3n3cnc4c(N)ncnc43)O[C@H]2n2cnc3c(N)ncnc32)[C@@H](O)[C@H]1O
inactive | Nc1ncnc2c1ncn2[C@@H]1O[C@H](COCP(=O)(O)O[C@@H]2[C@H](O)[C@@H](COP(=O)(O)O[C@@H]3[C@H](O)[C@@H](COP(=O)(O)O[C@H]4[C@H](O)[C@@H](COCP(=O)(O)O)O[C@H]4n4cnc5c(N)ncnc54)O[C@H]3n3cnc4c(N)ncnc43)O[C@H]2n2cnc3c(N)ncnc32)[C@@H](O)[C@@H]1O
inactive | Nc1ncnc2c1ncn2[C@@H]1O[C@H](COP(=O)(O)O[C@@H]2[C@H](O)[C@@H](COP(=O)(O)CO[C@H]3[C@H](O)[C@@H](COP(=O)(O)CO[C@H]4[C@H](O)[C@@H](COP(=O)(O)O)O[C@H]4n4cnc5c(N)ncnc54)O[C@H]3n3cnc4c(N)ncnc43)O[C@H]2n2cnc3c(N)ncnc32)[C@@H](O)[C@H]1O
inactive | Nc1ncnc2c1ncn2[C@@H]1O[C@H](COCP(=O)(O)O[C@H]2[C@H](O)[C@@H](COCP(=O)(O)O[C@@H]3[C@H](O)[C@@H](COP(=O)(O)O[C@H]4[C@H](O)[C@@H](COCP(=O)(O)O)O[C@H]4n4cnc5c(N)ncnc54)O[C@H]3n3cnc4c(N)ncnc43)O[C@H]2n2cnc3c(N)ncnc32)[C@@H](O)[C@@H]1O
inactive | Nc1ncnc2c1ncn2[C@@H]1O[C@H](COP(=O)(O)CO[C@H]2[C@H](O)[C@@H](COP(=O)(O)CO[C@H]3[C@H](O)[C@@H](COP(=O)(O)O[C@@H]4[C@H](O)[C@@H](COP(=O)(O)O)O[C@H]4n4cnc5c(N)ncnc54)O[C@H]3n3cnc4c(N)ncnc43)O[C@H]2n2cnc3c(N)ncnc32)[C@@H](O)[C@H]1O
inactive | Nc1ncnc2c1ncn2[C@@H]1O[C@H](COP(=O)(O)CO[C@H]2[C@H](O)[C@@H](COP(=O)(O)CO[C@H]3[C@H](O)[C@@H](COP(=O)(O)CO[C@H]4[C@H](O)[C@@H](COP(=O)(O)O)O[C@H]4n4cnc5c(N)ncnc54)O[C@H]3n3cnc4c(N)ncnc43)O[C@H]2n2cnc3c(N)ncnc32)[C@@H](O)[C@H]1O
inactive | Nc1ncnc2c1ncn2[C@@H]1O[C@H](COP(=O)(O)O[C@@H]2[C@H](O)[C@@H](COP(=O)(O)O[C@@H]3[C@@H](O)[C@@H](COCP(=O)(O)O[C@@H]4[C@@H](O)[C@@H](COCP(=O)(O)O)O[C@H]4n4cnc5c(N)ncnc54)O[C@H]3n3cnc4c(N)ncnc43)O[C@H]2n2cnc3c(N)ncnc32)[C@@H](O)[C@H]1O
inactive | Nc1ncnc2c1ncn2[C@@H]1O[C@H](COCP(=O)(O)O[C@@H]2[C@@H](O)[C@@H](COCP(=O)(O)O[C@@H]3[C@H](O)[C@@H](COP(=O)(O)O[C@@H]4[C@H](O)[C@@H](COP(=O)(O)O)O[C@H]4n4cnc5c(N)ncnc54)O[C@H]3n3cnc4c(N)ncnc43)O[C@H]2n2cnc3c(N)ncnc32)[C@H](O)[C@H]1O
inactive | Nc1ncnc2c1ncn2[C@@H]1O[C@H](COP(=O)(O)O[C@@H]2[C@H](O)[C@@H](COP(=O)(O)CO[C@@H]3[C@@H](O)[C@@H](COP(=O)(O)CO[C@@H]4[C@@H](O)[C@@H](COP(=O)(O)O)O[C@H]4n4cnc5c(N)ncnc54)O[C@H]3n3cnc4c(N)ncnc43)O[C@H]2n2cnc3c(N)ncnc32)[C@@H](O)[C@H]1O
inactive | Nc1ncnc2c1ncn2[C@@H]1O[C@H](COCP(=O)(O)O[C@@H]2[C@H](O)[C@@H](COP(=O)(O)O[C@@H]3[C@@H](O)[C@@H](COCP(=O)(O)O[C@@H]4[C@H](O)[C@@H](COP(=O)(O)O)O[C@H]4n4cnc5c(N)ncnc54)O[C@H]3n3cnc4c(N)ncnc43)O[C@H]2n2cnc3c(N)ncnc32)[C@H](O)[C@H]1O
inactive | Nc1ncnc2c1ncn2[C@@H]1O[C@H](COCP(=O)(O)O[C@@H]2[C@@H](O)[C@@H](COCP(=O)(O)O[C@@H]3[C@@H](O)[C@@H](COCP(=O)(O)O[C@@H]4[C@@H](O)[C@@H](COCP(=O)(O)O)O[C@H]4n4cnc5c(N)ncnc54)O[C@H]3n3cnc4c(N)ncnc43)O[C@H]2n2cnc3c(N)ncnc32)[C@H](O)[C@H]1O
inactive | Nc1ncnc2c1ncn2[C@@H]1O[C@H](COCP(=O)(O)O[C@@H]2[C@H](O)[C@@H](COCP(=O)(O)O[C@@H]3[C@H](O)[C@@H](COP(=O)(O)O[C@@H]4[C@H](O)[C@@H](COP(=O)(O)O)O[C@H]4n4cnc5c(N)ncnc54)O[C@H]3n3cnc4c(N)ncnc43)O[C@H]2n2cnc3c(N)ncnc32)[C@@H](O)[C@H]1O
inactive | Nc1ncnc2c1ncn2[C@@H]1O[C@H](COCP(=O)(O)O[C@H]2[C@H](O)[C@@H](COCP(=O)(O)O[C@H]3[C@H](O)[C@@H](COCP(=O)(O)O[C@@H]4[C@H](O)[C@@H](COP(=O)(O)O)O[C@H]4n4cnc5c(N)ncnc54)O[C@H]3n3cnc4c(N)ncnc43)O[C@H]2n2cnc3c(N)ncnc32)[C@@H](O)[C@@H]1O
inactive | Nc1ncnc2c1ncn2[C@@H]1O[C@H](COCP(=O)(O)O[C@@H]2[C@H](O)[C@@H](COCP(=O)(O)O[C@@H]3[C@H](O)[C@@H](COCP(=O)(O)O[C@@H]4[C@H](O)[C@@H](COCP(=O)(O)O)O[C@H]4n4cnc5c(N)ncnc54)O[C@H]3n3cnc4c(N)ncnc43)O[C@H]2n2cnc3c(N)ncnc32)[C@@H](O)[C@H]1O
inactive | Nc1ncnc2c1ncn2[C@@H]1O[C@H](COCP(=O)(O)O[C@@H]2[C@H](O)[C@@H](COP(=O)(O)O[C@@H]3[C@H](O)[C@@H](COP(=O)(O)O[C@@H]4[C@@H](O)[C@@H](COCP(=O)(O)O)O[C@H]4n4cnc5c(N)ncnc54)O[C@H]3n3cnc4c(N)ncnc43)O[C@H]2n2cnc3c(N)ncnc32)[C@H](O)[C@H]1O
inactive | Nc1ncnc2c1ncn2[C@@H]1O[C@H](COCP(=O)(O)O[C@@H]2[C@@H](O)[C@@H](COCP(=O)(O)O[C@@H]3[C@@H](O)[C@@H](COCP(=O)(O)O[C@@H]4[C@H](O)[C@@H](COP(=O)(O)O)O[C@H]4n4cnc5c(N)ncnc54)O[C@H]3n3cnc4c(N)ncnc43)O[C@H]2n2cnc3c(N)ncnc32)[C@H](O)[C@H]1O
inactive | Nc1ncnc2c1ncn2[C@@H]1O[C@H](COP(=O)(O)O[C@@H]2[C@H](O)[C@@H](COCP(=O)(O)O[C@@H]3[C@H](O)[C@@H](COCP(=O)(O)O[C@@H]4[C@H](O)[C@@H](COCP(=O)(O)O)O[C@H]4n4cnc5c(N)ncnc54)O[C@H]3n3cnc4c(N)ncnc43)O[C@H]2n2cnc3c(N)ncnc32)[C@@H](O)[C@H]1O
inactive | Nc1ncnc2c1ncn2[C@@H]1O[C@H](COP(=O)(O)O[C@H]2[C@H](O)[C@@H](COCP(=O)(O)O[C@H]3[C@H](O)[C@@H](COCP(=O)(O)O[C@H]4[C@H](O)[C@@H](COCP(=O)(O)O)O[C@H]4n4cnc5c(N)ncnc54)O[C@H]3n3cnc4c(N)ncnc43)O[C@H]2n2cnc3c(N)ncnc32)[C@@H](O)[C@H]1O
inactive | Nc1ncnc2c1ncn2[C@@H]1O[C@H](COP(=O)(O)O[C@@H]2[C@H](O)[C@@H](COP(=O)(O)CO[C@@H]3[C@H](O)[C@@H](COP(=O)(O)CO[C@@H]4[C@H](O)[C@@H](COP(=O)(O)O)O[C@H]4n4cnc5c(N)ncnc54)O[C@H]3n3cnc4c(N)ncnc43)O[C@H]2n2cnc3c(N)ncnc32)[C@@H](O)[C@H]1O

— ChEMBL document CHEMBL2057064, “Activation of human RNase L by 2'- and 5'-O-methylphosphonate-modified oligoadenylates” (Bioorg Med Chem Lett, 2012)
